Test results taken from patent US20180177749A1, “USE OF CYP EXPRESSION TO DIRECT THERAPEUTIC INTERVENTION IN CANCER” (REGENTS OF THE UNIVERSITY OF MINNESOTA, priority 2016, published 2018).

Tested on: MDA-MB-231 xenograft
Assay: RPPA of protein expression, MDA-MB-231 xenograft endpoint analysis
Format: in vivo, nude mice
Conditions: 4 mg/kg/day vs. PBS
Method: Frozen xenograft tissue samples were embedded in OCT, and 8 μm sections were obtained using a cryostat. […] The resulting whole tissue lysates were boiled for 8 min at 100° C. and then printed onto a nitrocellulose slide (Avid, Grace Biolabs) along with a BSA protein concentration curve to estimate total protein concentration in each lysate. Total protein levels were assessed in each sample by staining with Sypro Ruby Protein Blot Stain (Invitrogen) according to manufacturer's instructions.
The total protein concentration in each sample was estimated by printing onto a nitrocellulose slide along with a BSA standard concentration curve, and total protein levels were assessed by staining with Sypro Ruby Protein Blot Stain (Invitrogen) according to manufacturer's instructions. Tissue lysates were diluted to 250 μg/ml in extraction buffer and stored at −80° C. prior to printing of arrays. RPPA printing and analysis of xenograft samples was conducted as previously described (Wulfkuhle et al., Clin Cancer Res. 2012; 18:6426-35). Antibody staining intensities were quantified using the MicroVigene v5 Software Package (Vigenetech). Signaling pathway activation was evaluated by staining the arrays with 156 antibodies against signaling endpoints, mainly phosphorylated and cleaved protein products. Before use for RPPA analysis, antibody specificity was confirmed by Western blot and analysis as previously described (Wulfkuhle et al., Clin Cancer Res. 2012; 18:6426-35).

[1] = *separate RPPA analysis, separate β actin probe

CCCCCCNC(=N)NC(=N)NCc1ccccc1 [HBB, N1-hexyl-N5-benzyl-biguanide]
fold change: 4EBP1 S65: 1.143 | fold change: 4EBP1 T37/46: 0.828 | fold change: 4EBP1 T70: 1.117 | fold change: A-Raf S299: 1.335 | fold change: AKT S473: 1.795 | fold change: AKT T308: 1.987 | fold change: ALK: 1.368 | fold change: ALK Y1604: 1.302 | fold change: AMPKalpha S485: 2.359 | fold change: AMPKbeta S108: 1.081 | fold change: ATF2 T69/71: 0.959 | fold change: ATM S1981: 1.438 | fold change: ATP CItrate Lyase S454: 1.229 | fold change: ATR S428: 1.345 | fold change: AXL: 1.199 | fold change: Acetyl-CoA Carboxylase S79: 1.295 | fold change: Actin beta: 1.000 | fold change: Aurora A T288/B T232/C T198: 1.651 | fold change: B-RAF: 1.341 | fold change: B-Raf S445: 1.392 | fold change: BAD: 1.198 | fold change: BAD S112: 1.355 | fold change: BAD S136: 1.550 | fold change: BCL-2: 1.315 | fold change: BIM: 1.211 | fold change: Bak: 1.254 | fold change: Bax: 1.132 | fold change: Bcl_xL: 1.275 | fold change: Beclin 1: 1.235 | fold change: CREB S133: 1.164 | fold change: Cl Caspase 3 D175: 1.484 | fold change: Cl Caspase 9 D315: 1.437 | fold change: Cl Caspase 9 D330: 1.492 | fold change: Cleaved PARP D214: 1.223 | fold change: Cofilin S3: 1.783 | fold change: CrkL Y207: 1.186 | fold change: Cyclin A: 1.513 | fold change: Cyclin B1 V152: 1.294 | fold change: Cyclin D1 (G124-326): 1.272 | fold change: Cyclin D1 T286: 1.693 | fold change: E-Cadherin: 1.903 | fold change: EGFR: 1.184 | fold change: EGFR Y992: 1.970 | fold change: EGFR Y1068: 1.557 | fold change: EGFR Y1148: 1.407 | fold change: EGFR Y1173: 1.388 | fold change: ER TOTAL: 1.304 | fold change: ER alpha S118: 1.293 | fold change: ERK 1-2 T202/Y204: 1.337 | fold change: ERK TOTAL: 1.242 | fold change: Elk S383: 1.926 | fold change: Ephrin A3 Y799/A4 Y799/A5 Y833: 1.553 | fold change: ErbB2/HER2 Y877: 1.283 | fold change: ErbB2/HER2 Y1248: 1.717 | fold change: ErbB3/HER3: 0.828 | fold change: ErbB3/HER3 Y1197: 1.363 | fold change: ErbB3/HER3 Y1289: 1.558 | fold change: FAK Y576/577: 1.291 | fold change: FKHR T24/FKHRL1 T32: 1.039 | fold change: FKHRL1 S253: 1.671 | fold change: FOXO1 S256: 1.338 | fold change: GRB2: 1.013 | fold change: GSK-3alpha/beta S21/9: 1.294 | fold change: HIF-1 alpha: 1.096 | fold change: HSP27 S82: 0.821 | fold change: HSP70: 1.429 | fold change: HSP90a T5/7: 1.555 | fold change: Heregulin: 0.654 | fold change: Histone H3 S28: 1.222 | fold change: IGF1R Y1135/36-IR Y1150/51: 1.118 | fold change: IGF-1R Y1131/IR Y1146: 1.596 | fold change: IGFBP7: 1.180 | fold change: IL6: 1.192 | fold change: IRS1: 0.996 | fold change: IkappaB-alpha S32/36: 1.317 | fold change: Insulin Receptor Beta: 1.219 | fold change: Jak2 Y1007: 1.647 | fold change: KI67: 1.120 | fold change: LC3B: 1.109 | fold change: LIMK1 T508/LIMK2 T505: 1.351 | fold change: LKB1 S428: 1.652 | fold change: MARCKS S152/156: 1.421 | fold change: MCSFR Y723: 1.215 | fold change: MDM2 S166: 1.189 | fold change: MEK 1/2 S217/221: 1.772 | fold change: Met Y1234/1235: 1.556 | fold change: Musashi: 1.320 | fold change: NF-kappaB p65 S536: 1.655 | fold change: PAK1 S199/204-PAK2 S192/197: 1.852 | fold change: PAK1 T423/PAK2 T402: 1.245 | fold change: PDGFR alpha Y754: 1.266 | fold change: PDGFR beta: 1.147 | fold change: PDGFR beta Y716: 0.981 | fold change: PDK1 S241: 1.118 | fold change: PDL1: 0.548 | fold change: PKC delta/theta S643/S676: 1.447 | fold change: PKC zeta/lambda T410/403: 0.971 | fold change: PLK1 T210: 1.301 | fold change: PTEN: 1.334 | fold change: PTEN S380: 1.440 | fold change: RAS TOTAL: 1.486 | fold change: Ras_GRF1: 1.237 | fold change: Rb S780: 1.516 | fold change: Ret Y905: 1.885 | fold change: Ros Y2274: 1.481 | fold change: S6 Ribosomal Protein S240/244: 0.457 | fold change: SAPK/JNK T183/Y185: 1.410 | fold change: SGK1 S78: 1.510 | fold change: SMAD2 S245/250/255: 1.425 | fold change: STAT3 S727: 1.302 | fold change: Shc Y317: 1.307 | fold change: Src Y527: 1.356 | fold change: Src family Y416: 0.804 | fold change: Stat 1 Y701: 1.092 | fold change: Stat3 Y705: 1.421 | fold change: Stat 5 Y694: 0.929 | fold change: TGF-beta: 1.188 | fold change: TNF alpha: 1.119 | fold change: Tuberin/TSC2 Y1571: 1.417 | fold change: VEGFR2 Y996: 1.205 | fold change: Vimentin: 1.021 | fold change: XIAP: 1.311 | fold change: c-Abl T735: 1.596 | fold change: c-Abl Y245: 1.215 | fold change: c-ErbB2/HER2: 1.184 | fold change: c-Kit Y703: 1.408 | fold change: c-Met TOTAL: 1.220 | fold change: c-Myc: 1.078 | fold change: c-Raf S338: 1.229 | fold change: eIF4G S1108: 1.471 | fold change: mTOR: 0.679 | fold change: mTOR S2448: 1.515 | fold change: p27 Kip1: 1.253 | fold change: p27 T187: 1.152 | fold change: p38 MAP Kinase T180/Y182: 1.075 | fold change: p53: 1.390 | fold change: p53 S15: 1.586 | fold change: p70S6 Kinase: 1.193 | fold change: p70 S6 Kinase S371: 1.621 | fold change: p70 S6 Kinase T389: 2.148 | fold change: p70 S6 Kinase T412: 1.352 | fold change: p90RSK T359/S363: 1.248 | fold change: pYAP S127: 1.022 | fold change: AMPK T172* [1]: 3.561 | fold change: AMPK total* [1]: 0.555 | fold change: PKM2 Y105* [1]: 1.403 | fold change: PKM2 total* [1]: 1.339
